{"source": "patent US20220332737A1", "about": "“CARBOCYCLIC NUCLEOSIDE ANALOGUE” (Ludwig-Maximilians-Universität München, priority 2019, published 2022)", "key": {"[1]": {"test": "Test for hydrolytic stability in KH2PO4 buffer (HPLC)", "format": "physicochemical", "settings": "for hydrolytic stability / degradation: aqueous KH2PO4 buffer 100 mM, pH 7.4, 5.5 and 8.5 (all tested pH values), 100 mM compound, r.t.", "protocol": "Both nucleosides were dissolved in aqueous KH2PO4 buffer (100 mM, pH=7.4, 5.5 and 8.5) in 100 mM concentration. The solutions were immediately analysed via HPLC (t=0 h) with subsequent HPLC analyses every 1.5 h or at indicated time points. As stationary phase an EC 250/4 NUCLEOSIL 120-3 C18 (Macherey-Nagel) chromatography column was used. The mobile phase consisted of water (buffer A) and acetonitrile (buffer B) at a flow-rate of 0.5 mL/min as follows: 0→25 min, 0→5% buffer B; 25 min→28 min, 5%→80%; 28 min→38 min, 80%; 38 min→43 min 80%→0%; 43 min→45 min, 0%.\nSince one treatment cycle for AzadC goes over four weeks we decided to measure the stability at a time point related to a half cycle (14 d). NMR spectra were measured after keeping the solutions at r.t."}, "[2]": {"system": "mouse embryonic stem cells (mESC)", "settings": "from reference [19], cited from earlier work"}, "[3]": {"test": "HPLC stability test of a neutral solution in pure water (FIG. 5)", "format": "physicochemical", "settings": "100 mM solutions in pure water, t=0 h to 6 d", "protocol": "FIG. 5. HPLC investigation of a neutral solution of Decitabine 1 (left) versus the carbacyclic compound cAzaC 20 (right). 100 mM solutions of the compounds were kept in pure water and tested at t=0 h, 1.5 h, 3 h, 4.5 h, 6 h, 24 h, 6 d."}, "[4]": {"system": "mouse embryonic stem cells (mESC)", "test": "Treatment of primed mESC, UHPLC-MS2 quantification of genome incorporation and mdC/hmdC levels", "format": "cell-based", "settings": "for level incorporated into the genome: primed mESC", "protocol": "Feeder independent wt J1 (strain 129S4/SvJae) cells were cultured in the presence of serum and LIF as previously described. They were routinely maintained on gelatinized plates in 2i/L medium. For priming experiments, 2i cultures were passaged when applicable in DMEM supplemented with FBS and LIF as above but lacking the inhibitors. For drug treatment, cells were moved into the primed state by removing 2i from the medium. Cells were incubated 2 d in DMEM supplemented with FBS and LIF in 6-well plates (VWR). After splitting, 2×10^5 cells were transferred into a 6-well plate culture dish and supplemented with either 1 μM (in 0.01% DMSO) or 5 μM cAzadC (in 0.05% DMSO) and treated for 72 h. After removal of the medium and washing the cells with DPBS, they were directly lysed with RLT^+ buffer as described in a previous publication.\nThe gDNA was isolated as described previously. The gDNA was directly subjected to a total enzymatic digest and analyzed using UHPLC-MS^2 as described in a previous publication. The external calibration curve was generated by serially diluting pure cAzadC [20 pmol, 10 pmol, 5 pmol, 2.5 pmol, 1.25 pmol, 0.625 pmol, 0.3125 pmol] and measuring it in technical triplicates prior to each measurement. Linear regression was done by OriginPro 2016G.\nWe investigated if the disarming effect described in Example 3 would influence the biological functions. We used for this purpose mouse embryonic stem cells (mESC) that were primed in serum/Lif as a model system, since mdC levels increase from naïve to primed state. We added cAzadC 1 in two different concentrations (1 μM and 5 μM) to mESC that have been primed for 48 h and allowed the cells to further proliferate under priming conditions in the presence of cAzadC 1 for additional 72 h. After the 72 h, we harvested the cells, isolated the DNA and digested the DNA down to the nucleoside level using our described protocol.\nThe levels of mdC were finally precisely quantified using isotope dilution UHPLC-MS^2. To this end, isotopically labelled standards of the nucleosides were spiked-in for exact quantification. In addition to mdC, we quantified the levels of 5-hydroxymethyl-2′-deoxycytidine (hmdC), which is formed from mdC by the action of TET enzymes. The absolute levels of hmdC are in mESC more than ten times lower than the mdC levels. The consequence is that even after a substantial reduction of mdC, there should be sufficient mdC to keep the hmdC levels constant. The question if and by how much the hmdC level is affected can therefore inform us about how epigenetic reprogramming is organized.\nParallel to the quantification of mdC and hmdC we also quantified to which extend cAzadC 1 itself was incorporated into the genome of the mESC. Detection of AzadC in the genome of treated cells is only possible after treatment of the DNA with NaBH4. Application of NaBH4 reduces the C(5)=C(6) double bond, which stabilizes the compound so that its quantification becomes possible. To our delight, we noted that the stability of cAzadC 1 allowed its quantification without this pre-treatment. We also noted that the applied enzymatic digestion protocol allowed to digest genomic DNA (gDNA) even in the presence of large amounts of cAzadC 1. Taken together, quantification of cAzadC 1 by UHPLC-MS^2 using an external calibration curve was possible in parallel to quantification of canonical and epigenetic bases."}}, "note": "Entries after “also recorded” stand apart in the source; their conditions may differ. Read-outs that look alike come from different tables or passages of the source.", "data": [{"smiles": "Nc1ncn([C@H]2C[C@H](O)[C@@H](CO)O2)c(=O)n1", "note": "[AzadC, 5-Aza-2′-deoxycytidine]", "values": [{"measurement": "hydrolytic stability / degradation", "setting": "[1]; 14 d", "value": "strongly degraded; also recorded: severe hydrolytic decomposition"}, {"measurement": "intact compound remaining", "setting": "[1]; pH=5.5, 14 d", "value": "only hardly detectable"}, {"measurement": "intact compound remaining", "setting": "[1]; pH=8.5, 14 d", "value": "only hardly detectable"}, {"measurement": "intact compound remaining / degradation", "setting": "[1]; physiological pH (7.4), 14 d", "value": "still present after 14 d but the level of degradation is dramatic"}, {"measurement": "decrease of mdC to % of the original value", "setting": "[2]; 24 h, 1 μM", "value": 50, "unit": "%"}, {"measurement": "level incorporated into the genome", "setting": "[2]; applied with 1 μM", "value": "1.2×10^−3 AzadC per dN"}]}, {"smiles": "Nc1ncn([C@@H]2C[C@H](CO)[C@@H](O)[C@H]2O)c(=O)n1", "note": "[cAzaC 20, 4-Amino-1-[(1′R,2′S,3′R,4′R)-2′,3′-bishydroxy-4′-(hydroxymethyl) -cyclopentyl]-1H-[1,3,5]-triazin-2-one]", "values": [{"measurement": "stability compared with decitabine", "setting": "[3]", "value": "much more stable"}]}, {"smiles": "Nc1ncn([C@@H]2C[C@H](CO)[C@@H](O)C2)c(=O)n1", "note": "[cAzadC 1, 4-Amino-1-[(1′R,3′S,4′R)-3′-hydroxy-4′-(hydroxymethyl)-cyclopentyl]-1H -[1,3,5]triazin-2-one]", "values": [{"measurement": "hydrolytic stability / degradation", "setting": "[1]; 14 d", "value": "no degradation; also recorded: stable at all three pH values"}, {"measurement": "hmdC levels reduced to", "setting": "[4]; 1 μM, 72 h", "value": "about 50%"}, {"measurement": "nucleotides integrated into the genome", "setting": "[4]; 1 μM, 72 h", "value": "~3", "unit": "million"}, {"measurement": "level incorporated into the genome", "setting": "[4]; 1 μM, 72 h", "value": "5×10^−4 cAzadC per dN"}, {"measurement": "incorporated level relative to the AzadC level", "setting": "[4]; 1 μM, compared with AzadC at 1 μM [19]", "value": "about a third"}, {"measurement": "increase of incorporated level, 5 μM versus 1 μM", "setting": "[4]; 5 μM versus 1 μM", "value": 3, "unit": "fold"}, {"measurement": "nucleotides integrated per genome", "setting": "[4]; 5 μM, 72 h", "value": "more than 8 million"}, {"measurement": "hmdC detection", "setting": "[4]; 5 μM, 72 h, 0.5 μg of genomic DNA", "value": "unable to detect hmdC above background levels"}, {"measurement": "level incorporated into the genome", "setting": "[4]; 5 μM, 72 h", "value": "1.7×10^−3 cAzadC per dN"}, {"measurement": "mdC levels, of the original value", "setting": "[4]; 72 h at 5 µM concentration in the medium", "value": "about 50%"}, {"measurement": "reduction of the mdC values", "setting": "[4]; 72 h at 1 M cAzadC in the medium", "value": "~30", "unit": "%"}, {"measurement": "mdC level relative to the control levels", "setting": "[4]; summary, concentration not given", "value": 70, "unit": "%"}]}]}
